This note sets out measurements from ChEMBL document CHEMBL4840329, “Antibiotic Dixiamycins from a Cold-Seep-Derived Streptomyces olivaceus” (2021).

The test system of assay [1] is Escherichia coli. Briefly: Anti-MDR bacterial activity against Escherichia coli CCARM 1009 assessed as inhibition of bacterial growth incubated for 18 hrs by microplate reader analysis. It counts as functional.
Assay [2] concerns Enterococcus faecalis. Briefly: Anti-MDR bacterial activity against Enterococcus faecalis CCARM 5172 assessed as inhibition of bacterial growth incubated for 18 hrs by microplate reader analysis. It counts as functional.
The subject of assay [3] is Micrococcus luteus. Briefly: Anti-MDR bacterial activity against Micrococcus luteus ML01 assessed as inhibition of bacterial growth incubated for 18 hrs by microplate reader analysis. It counts as functional.
The test system of assay [4] is Pseudomonas aeruginosa. Description: Anti-MDR bacterial activity against Pseudomonas aeruginosa 15690 assessed as inhibition of bacterial growth incubated for 18 hrs by microplate reader analysis. It counts as functional.
Assay [5] concerns Salmonella typhimurium. Briefly: Anti-MDR bacterial activity against Salmonella typhimurium CCARM 8250 assessed as inhibition of bacterial growth incubated for 18 hrs by microplate reader analysis. In kind it is functional, Salmonella enterica subsp. enterica serovar Typhimurium. As to conditions: Salmonella enterica.
Assay [6] deals with Enterococcus faecium. Description: Anti-MDR bacterial activity against Enterococcus faecium CCARM 5203 assessed as inhibition of bacterial growth incubated for 18 hrs by microplate reader analysis. In kind it is functional.
The subject of assay [7] is Staphylococcus aureus. Briefly: Anti-MDR bacterial activity against Staphylococcus aureus CCARM 3090 assessed as inhibition of bacterial growth incubated for 18 hrs by microplate reader analysis. In kind it is functional.
Setting [8] is: Enterococcus faecalis, CCARM 5172, 18 h, read-out: MIC.
[9] abbreviates: Micrococcus luteus, ML01, 18 h, read-out: MIC.
[10] abbreviates: Pseudomonas aeruginosa, 15690, 18 h, read-out: MIC.
The mark [11] stands for this setting: Enterococcus faecium, CCARM 5203, 18 h, read-out: MIC.
Where [12] appears, read: Staphylococcus aureus, CCARM 3090, 18 h, read-out: MIC.

Converted amounts (≈) assume the structure as drawn. Bounds are passed on as bounds.

By MIC is commonly meant the least concentration at which growth counts as inhibited. `C[C@@]1(C(=O)O)[C@@H](O)CC[C@]2(C)c3cc4c5ccccc5n(-c5c6c(cc7c5[nH]c5ccccc57)[C@@]5(C)CC[C@H](O)[C@@](C)(C(=O)O)[C@@H]5CC6)c4cc3CC[C@@H]12` (stereo in doubt; 3): the MIC was over 12.5 µg/mL in assay [1]; over 12.5 µg/mL in assay [2] (setting [8]); over 12.5 µg/mL in assay [3] (setting [9]); 6.25 µg/mL (≈ 8.62 µM) in assay [4] (setting [10]); over 12.5 µg/mL in assay [5]; 12.5 µg/mL (≈ 17.2 µM) in assay [6] (setting [11]). Further, the MIC in assay [7] (setting [12]) is 6.25 µg/mL (≈ 8.62 µM).
For the compound `C[C@@]1(C(=O)O)[C@@H](O)CC[C@]2(C)c3cc4c(cc3CC[C@@H]12)[nH]c1ccc(-n2c3ccccc3c3cc5c(cc32)CC[C@H]2[C@](C)(C(=O)O)[C@@H](O)CC[C@]52C)cc14`, the MIC in assay [1] is over 12.5 µg/mL; in assay [2] (setting [8]), 3.12 µg/mL (≈ 4.3 µM); in assay [3] (setting [9]), 3.12 µg/mL (≈ 4.3 µM); in assay [4] (setting [10]), 0.78 µg/mL (≈ 1.08 µM); in assay [5], over 12.5 µg/mL; in assay [6] (setting [11]), 1.56 µg/mL (≈ 2.15 µM). In assay [7] (setting [12]), the MIC was 0.78 µg/mL (≈ 1.08 µM).
As to `C[C@@]1(C(=O)O)[C@@H](O)CC[C@]2(C)c3cc4c(cc3CC[C@@H]12)[nH]c1ccc(S(=O)(=O)c2c3c(cc5c2[nH]c2ccccc25)[C@@]2(C)CC[C@H](O)[C@@](C)(C(=O)O)[C@@H]2CC3)cc14`, the MIC in assay [1] was over 12.5 µg/mL; in assay [2] (setting [8]) it was over 12.5 µg/mL; in assay [3] (setting [9]), over 12.5 µg/mL; in assay [4] (setting [10]) it was over 12.5 µg/mL; in assay [5], over 12.5 µg/mL; in assay [6] (setting [11]) it was 6.25 µg/mL (≈ 7.92 µM). Moreover, in assay [7] (setting [12]), the MIC came out at 12.5 µg/mL (≈ 15.8 µM).
As to `C[C@@]1(C(=O)O)[C@@H](O)CC[C@]2(C)c3cc4c5ccccc5n(-n5c6ccccc6c6cc7c(cc65)CC[C@H]5[C@](C)(C(=O)O)[C@@H](O)CC[C@]75C)c4cc3CC[C@@H]12` (stereo in doubt; 6), the MIC is 1.56 µg/mL (≈ 2.15 µM) in assay [2] (18 h); 6.25 µg/mL (≈ 8.62 µM) in assay [3]; 0.78 µg/mL (≈ 1.08 µM) in assay [4] (18 h); 1.56 µg/mL (≈ 2.15 µM) in assay [6] (18 h); 1.56 µg/mL (≈ 2.15 µM) in assay [7] (18 h).
As for `C[C@@]1(C(=O)O)[C@@H](O)CC[C@]2(C)c3cc4c(cc3CC[C@@H]12)[nH]c1c(-n2c3ccccc3c3cc5c(cc32)CC[C@H]2[C@](C)(C(=O)O)[C@@H](O)CC[C@]52C)cccc14` (stereo in doubt; 2), the MIC in assay [2] (18 h) came out at 3.12 µg/mL (≈ 4.3 µM); in assay [3] (18 h), 3.12 µg/mL (≈ 4.3 µM); in assay [4] it was 1.56 µg/mL (≈ 2.15 µM); in assay [6] (18 h), 3.12 µg/mL (≈ 4.3 µM); in assay [7] (18 h) it was 0.78 µg/mL (≈ 1.08 µM).
On to `C[C@@]1(C(=O)O)[C@@H](O)CC[C@]2(C)c3cc4c(cc3CC[C@@H]12)[nH]c1c(-n2c3ccccc3c3cc5c(cc32)CC[C@H]2[C@](C)(C(=O)O)[C@@H](O)CC[C@]52C)cccc14` (stereo in doubt; 1), for which the MIC in assay [1] was over 12.5 µg/mL; in assay [2] (18 h), 6.25 µg/mL (≈ 8.62 µM); in assay [3] (18 h), 6.25 µg/mL (≈ 8.62 µM); in assay [4] (setting [10]), 1.56 µg/mL (≈ 2.15 µM); in assay [5], over 12.5 µg/mL; in assay [6] (18 h), 6.25 µg/mL (≈ 8.62 µM). The MIC in assay [7] (18 h) was 3.12 µg/mL (≈ 4.3 µM).
In the case of `C[C@@]1(C(=O)O)[C@@H](O)CC[C@]2(C)c3cc4c5ccccc5n(-n5c6ccccc6c6cc7c(cc65)CC[C@H]5[C@](C)(C(=O)O)[C@@H](O)CC[C@]75C)c4cc3CC[C@@H]12` (stereo in doubt; 5), the MIC is over 12.5 µg/mL in assay [1]; 6.25 µg/mL (≈ 8.62 µM) in assay [2] (18 h); 6.25 µg/mL (≈ 8.62 µM) in assay [3] (setting [9]); 3.12 µg/mL (≈ 4.3 µM) in assay [4] (18 h); over 12.5 µg/mL in assay [5]; 3.12 µg/mL (≈ 4.3 µM) in assay [6] (setting [11]). Besides, the MIC in assay [7] (setting [12]) was 3.12 µg/mL (≈ 4.3 µM).
For `C[C@@]1(C(=O)O)[C@@H](O)CC[C@]2(C)c3cc4c5ccccc5n(-c5c6c(cc7c5[nH]c5ccccc57)[C@@]5(C)CC[C@H](O)[C@@](C)(C(=O)O)[C@@H]5CC6)c4cc3CC[C@@H]12` (stereo in doubt; 4), the MIC in assay [4] (18 h), in assay [6] (18 h) and in assay [7] (18 h) was over 12.5 µg/mL throughout.
In the case of `CN(C)[C@@H]1C(O)=C(C(N)=O)C(=O)[C@@]2(O)C(O)=C3C(=O)c4c(O)cccc4[C@@](C)(O)[C@H]3C[C@@H]12` [TETRACYCLINE], the MIC in assay [1] was 1.56 µg/mL (≈ 3.51 µM); in assay [2] (setting [8]) it was over 25 µg/mL; in assay [3] (setting [9]) it was 6.25 µg/mL (≈ 14.1 µM); in assay [4] (setting [10]) it was 12.5 µg/mL (≈ 28.1 µM); in assay [5] it was over 25 µg/mL; in assay [6] (setting [11]), 1.56 µg/mL (≈ 3.51 µM). Also, the MIC in assay [7] (Staphylococcus aureus, CCARM 3090, read-out: MIC) is 6.25 µg/mL (≈ 14.1 µM).
